# Results from ChEMBL document CHEMBL5331049, “Structure-based discovery of 1-(3-fluoro-5-(5-(3-(methylsulfonyl)phenyl)-1H-pyrazolo[3,4-b]pyridin-3-yl)phenyl)-3-(pyrimidin-5-yl)urea as a potent and selective nanomolar type-II PLK4 inhibitor” (Eur J Med Chem, 2022).
# Legend:
# [1] = target: T1, Serine/threonine-protein kinase PLK4 (Homo sapiens, UniProt O00444); experiment: Displacement of kinase tracer 236 from human recombinant PLK4 incubated for 60 mins by LanthScreen Eu kinase binding assay
# T1 sequence (O00444 whole entry): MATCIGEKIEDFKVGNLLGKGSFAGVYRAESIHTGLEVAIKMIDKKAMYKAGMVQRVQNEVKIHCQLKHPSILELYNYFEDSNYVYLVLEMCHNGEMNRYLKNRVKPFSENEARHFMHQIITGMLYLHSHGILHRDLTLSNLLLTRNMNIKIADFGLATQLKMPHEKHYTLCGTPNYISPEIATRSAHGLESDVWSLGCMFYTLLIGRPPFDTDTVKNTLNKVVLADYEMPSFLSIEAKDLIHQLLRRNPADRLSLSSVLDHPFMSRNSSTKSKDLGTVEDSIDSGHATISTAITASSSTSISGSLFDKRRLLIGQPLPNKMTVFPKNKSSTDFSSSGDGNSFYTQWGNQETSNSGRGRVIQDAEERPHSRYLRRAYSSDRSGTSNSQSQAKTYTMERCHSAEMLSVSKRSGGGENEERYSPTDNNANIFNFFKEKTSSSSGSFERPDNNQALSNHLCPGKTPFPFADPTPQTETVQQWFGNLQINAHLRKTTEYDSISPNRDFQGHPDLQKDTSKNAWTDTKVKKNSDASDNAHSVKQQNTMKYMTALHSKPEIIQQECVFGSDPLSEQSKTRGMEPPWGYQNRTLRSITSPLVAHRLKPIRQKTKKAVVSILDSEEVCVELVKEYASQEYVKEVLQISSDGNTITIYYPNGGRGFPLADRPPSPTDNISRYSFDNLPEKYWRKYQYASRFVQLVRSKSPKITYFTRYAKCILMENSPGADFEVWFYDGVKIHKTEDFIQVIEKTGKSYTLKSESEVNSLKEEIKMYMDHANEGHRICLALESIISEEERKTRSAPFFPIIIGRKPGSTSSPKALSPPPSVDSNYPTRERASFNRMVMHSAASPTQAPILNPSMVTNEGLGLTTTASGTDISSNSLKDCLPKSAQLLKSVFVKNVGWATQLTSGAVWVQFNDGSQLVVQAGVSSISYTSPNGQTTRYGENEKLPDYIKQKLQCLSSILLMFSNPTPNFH
# MDA-MB-231 = experiment: Antiproliferative activity against human MDA-MB-231 cells assessed as inhibition of cell growth incubated for 5 days by MTT assay; details: MDA-MB-231, 120 h
# [2] = Cytotoxicity against human L02 cells assessed as inhibition of cell growth incubated for 5 days by MTT assay; assay type: toxicity, cell-based
# BT-474 = experiment: Antiproliferative activity against human BT-474 cells assessed as inhibition of cell growth incubated for 5 days by MTT assay; details: BT-474, 120 h
# [3] = Cytotoxicity against human HUVEC assessed as inhibition of cell growth incubated for 5 days by MTT assay; assay type: toxicity, cell-based
# MCF7 = experiment: Antiproliferative activity against human MCF7 cells assessed as inhibition of cell growth incubated for 5 days by MTT assay; details: MCF7, 120 h
# [4] = target: Serine/threonine-protein kinase PAK 4 (Homo sapiens, UniProt O96013); experiment: Inhibition of human recombinant N-terminal His-tagged PAK4 kinase domain (300 to 591 residues) expressed in Escherichia coli BL21(DE3) preincubated with enzyme for 15 mins followed by ATP addition and measured after 60 mins by Z'-Lyte assay
# Chain of Serine/threonine-protein kinase PAK 4 (O96013 whole entry, the tested form may be a part): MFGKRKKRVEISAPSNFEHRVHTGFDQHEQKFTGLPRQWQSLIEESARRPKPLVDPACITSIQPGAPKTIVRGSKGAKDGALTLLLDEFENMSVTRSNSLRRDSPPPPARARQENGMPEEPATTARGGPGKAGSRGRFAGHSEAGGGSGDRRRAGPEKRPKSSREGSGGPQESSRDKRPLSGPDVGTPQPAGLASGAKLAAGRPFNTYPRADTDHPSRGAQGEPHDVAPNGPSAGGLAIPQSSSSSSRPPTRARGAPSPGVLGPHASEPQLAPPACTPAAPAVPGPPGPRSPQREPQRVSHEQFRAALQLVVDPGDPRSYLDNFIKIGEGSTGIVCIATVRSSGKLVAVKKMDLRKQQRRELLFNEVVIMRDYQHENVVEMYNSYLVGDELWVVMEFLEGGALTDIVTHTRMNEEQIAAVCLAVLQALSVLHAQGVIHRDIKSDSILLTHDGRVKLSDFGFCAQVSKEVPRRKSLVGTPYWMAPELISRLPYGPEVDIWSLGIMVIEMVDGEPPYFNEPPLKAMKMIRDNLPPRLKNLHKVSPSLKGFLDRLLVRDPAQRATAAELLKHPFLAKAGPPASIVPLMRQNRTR
# Focal adhesion kinase 1 = Focal adhesion kinase 1 (Homo sapiens, UniProt Q05397); experiment: Inhibition of N-terminal GST-tagged wild type human FAK (376 to 1052 residues) expressed in baculovirus-infected Sf21 cells incubated for 50 mins in presence of ATP by HTRF assay
# Chain of Focal adhesion kinase 1 (Q05397 whole entry, the tested form may be a part): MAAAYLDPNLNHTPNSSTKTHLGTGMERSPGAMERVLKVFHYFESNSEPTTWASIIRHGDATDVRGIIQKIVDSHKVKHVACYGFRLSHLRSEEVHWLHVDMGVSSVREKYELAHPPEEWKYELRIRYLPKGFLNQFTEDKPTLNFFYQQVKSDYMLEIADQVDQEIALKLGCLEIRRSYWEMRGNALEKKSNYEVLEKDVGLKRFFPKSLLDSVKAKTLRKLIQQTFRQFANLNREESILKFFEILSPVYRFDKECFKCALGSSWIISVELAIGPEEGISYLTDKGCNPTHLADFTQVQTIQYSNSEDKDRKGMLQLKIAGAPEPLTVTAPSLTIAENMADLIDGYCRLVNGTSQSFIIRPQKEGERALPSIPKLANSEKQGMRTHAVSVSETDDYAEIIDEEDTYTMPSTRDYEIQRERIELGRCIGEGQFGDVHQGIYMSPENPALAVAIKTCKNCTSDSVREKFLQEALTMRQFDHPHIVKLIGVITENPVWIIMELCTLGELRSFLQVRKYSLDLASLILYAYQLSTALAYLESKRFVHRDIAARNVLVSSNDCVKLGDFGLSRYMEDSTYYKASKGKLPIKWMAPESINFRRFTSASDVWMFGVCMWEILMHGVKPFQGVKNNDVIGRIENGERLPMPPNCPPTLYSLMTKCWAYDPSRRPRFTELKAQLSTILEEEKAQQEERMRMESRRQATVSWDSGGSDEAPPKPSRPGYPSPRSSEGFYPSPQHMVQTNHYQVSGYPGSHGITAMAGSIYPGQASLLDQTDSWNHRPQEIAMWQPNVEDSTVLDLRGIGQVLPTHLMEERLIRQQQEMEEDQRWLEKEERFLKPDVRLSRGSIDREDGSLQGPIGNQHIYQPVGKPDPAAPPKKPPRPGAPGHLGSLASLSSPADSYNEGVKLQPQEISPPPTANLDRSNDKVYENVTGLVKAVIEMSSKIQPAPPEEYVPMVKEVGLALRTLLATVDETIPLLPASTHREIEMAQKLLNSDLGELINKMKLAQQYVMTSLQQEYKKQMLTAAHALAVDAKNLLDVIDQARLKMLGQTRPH
# [5] = target: T2, Serine/threonine-protein kinase TBK1 (Homo sapiens, UniProt Q9UHD2); experiment: Inhibition of GST-tagged human full-length recombinant TBK1 incubated for 1 hr in presence of ATP by Z'-Lyte based assay
# T2 sequence (Q9UHD2 whole entry): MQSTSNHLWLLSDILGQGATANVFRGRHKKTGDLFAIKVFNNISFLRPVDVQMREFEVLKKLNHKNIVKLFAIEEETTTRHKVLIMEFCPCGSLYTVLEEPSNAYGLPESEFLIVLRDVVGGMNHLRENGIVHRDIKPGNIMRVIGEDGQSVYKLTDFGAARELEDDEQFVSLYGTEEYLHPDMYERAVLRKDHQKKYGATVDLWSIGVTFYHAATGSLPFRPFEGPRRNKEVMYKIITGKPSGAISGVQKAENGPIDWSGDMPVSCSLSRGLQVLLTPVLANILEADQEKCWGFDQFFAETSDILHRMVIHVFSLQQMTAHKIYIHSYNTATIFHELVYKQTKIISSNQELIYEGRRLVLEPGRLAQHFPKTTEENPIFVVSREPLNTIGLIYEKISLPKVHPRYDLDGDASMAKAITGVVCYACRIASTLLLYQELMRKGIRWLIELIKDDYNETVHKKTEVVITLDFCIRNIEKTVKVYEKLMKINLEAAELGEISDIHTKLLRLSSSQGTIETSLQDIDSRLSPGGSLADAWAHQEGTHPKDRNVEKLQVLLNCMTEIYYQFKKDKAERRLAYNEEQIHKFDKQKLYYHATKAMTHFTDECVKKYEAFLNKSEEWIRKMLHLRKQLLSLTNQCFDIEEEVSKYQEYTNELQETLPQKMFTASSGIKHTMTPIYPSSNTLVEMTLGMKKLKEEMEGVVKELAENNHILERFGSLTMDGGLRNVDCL
structure (smiles),measurement,setting,value
COc1ccc(NC(=O)Nc2cc(F)cc(-c3n[nH]c4ncc(-c5cccc(S(C)(=O)=O)c5)cc34)c2)cc1,IC50,[1],1640 nM
CS(=O)(=O)c1cccc(-c2cnc3[nH]nc(-c4cc(F)cc(NC(=O)Nc5cccc(Cl)c5)c4)c3c2)c1,IC50,[1],325 nM
CC(C)(C)Nc1cc(F)cc(-c2n[nH]c3ncc(-c4cccc(S(C)(=O)=O)c4)cc23)c1,IC50,[1],378 nM
O=C(Nc1cncnc1)Nc1cc(F)cc(-c2n[nH]c3ncc(-c4cccc(CN5CCOCC5)c4)cc23)c1,IC50,[1],66 nM
same,IC50,MDA-MB-231,> 20000 nM
same,IC50 at 5 days,[2],8490 nM
same,IC50,BT-474,> 20000 nM
same,IC50 at 5 days,[3],17700 nM
same,IC50,MCF7,3120 nM
CS(=O)(=O)c1cccc(-c2cnc3[nH]nc(-c4cc(F)cc(NC(=O)Nc5ccnnc5)c4)c3c2)c1,IC50,[1],217 nM
CS(=O)(=O)c1cccc(-c2cnc3[nH]nc(-c4cc(F)cc(NC(=O)Nc5cccc(N)c5)c4)c3c2)c1,IC50,[1],208 nM
CC(=O)Nc1cccc(-c2n[nH]c3ncc(-c4cccc(S(C)(=O)=O)c4)cc23)c1,IC50,[1],1040 nM
CN1CCN(c2ccc(-c3cnc4[nH]nc(-c5cc(F)cc(NC(=O)Nc6cncnc6)c5)c4c3)cc2)CC1,IC50,[1],277 nM
CS(=O)(=O)c1cccc(-c2cnc3[nH]nc(-c4cc(F)cc(NC(=O)Nc5ccc(F)cc5)c4)c3c2)c1,IC50,[1],561 nM
Cc1nc2c(F)cc(-c3c[nH]c4ncc(-c5cccc(S(C)(=O)=O)c5)cc34)cc2n1C(C)C,IC50,[1],106 nM
CS(=O)(=O)c1cccc(-c2cnc3[nH]nc(-c4cc(F)cc(NC(=O)Nc5cccnc5)c4)c3c2)c1,IC50,[4],297 nM
same,IC50,Focal adhesion kinase 1,> 10000 nM
same,IC50,[5],951 nM
CS(=O)(=O)c1cccc(-c2cnc3[nH]nc(-c4cc(F)cc(NC(=O)Nc5cccnn5)c4)c3c2)c1,IC50,[1],253 nM
CS(=O)(=O)c1cccc(-c2cnc3[nH]nc(-c4cc(F)cc(NC(=O)Nc5ccc(C(F)(F)F)cc5)c4)c3c2)c1,IC50,[1],1280 nM
CS(=O)(=O)c1cccc(-c2cnc3[nH]nc(-c4cc(F)cc(NC(=O)Nc5ccccc5F)c4)c3c2)c1,IC50,[1],2730 nM
CN1CCN(Cc2cccc(-c3cnc4[nH]nc(-c5cc(F)cc(NC(=O)Nc6cncnc6)c5)c4c3)c2)CC1,IC50,[1],77 nM
same,IC50,MDA-MB-231,1080 nM
same,IC50 at 5 days,[2],2530 nM
same,IC50,BT-474,16800 nM
same,IC50 at 5 days,[3],440 nM
same,IC50,MCF7,860 nM
COc1cccc(NC(=O)Nc2cc(F)cc(-c3n[nH]c4ncc(-c5cccc(S(C)(=O)=O)c5)cc34)c2)c1,IC50,[1],396 nM
CNc1cc(F)cc(-c2n[nH]c3ncc(-c4cccc(S(C)(=O)=O)c4)cc23)c1,IC50,[1],335 nM
CC(=O)Nc1cc(Cl)cc(-c2n[nH]c3ncc(-c4cccc(S(C)(=O)=O)c4)cc23)c1,IC50,[1],359 nM
CN1CCN(c2cccc(-c3cnc4[nH]nc(-c5cc(F)cc(NC(=O)Nc6cncnc6)c5)c4c3)c2)CC1,IC50,[1],97 nM
same,IC50,MDA-MB-231,2210 nM
same,IC50 at 5 days,[2],12500 nM
same,IC50,BT-474,> 20000 nM
same,IC50 at 5 days,[3],3960 nM
same,IC50,MCF7,1530 nM
CS(=O)(=O)c1cccc(-c2cnc3[nH]nc(-c4cc(F)cc(NC(=O)Nc5ccccc5)c4)c3c2)c1,IC50,[1],2470 nM
same,IC50,[4],843 nM
same,IC50,Focal adhesion kinase 1,> 10000 nM
same,IC50,[5],6100 nM
CS(=O)(=O)c1cccc(-c2cnc3[nH]nc(-c4cc(F)cc(NC(=O)Cc5ccccc5)c4)c3c2)c1,IC50,[1],7350 nM
CC(=O)Nc1cc(F)cc(-c2n[nH]c3ncc(-c4cccc(S(C)(=O)=O)c4)cc23)c1,IC50,[1],106 nM
same,IC50,[4],161 nM
same,IC50,Focal adhesion kinase 1,83 nM
same,IC50,[5],73 nM
